Data from patent US10206909B2, “3-(1H-pyrrolo[2,3-B]pyridin-2-yl)-1H-pyrazolo[4,3-B]pyridines and therapeutic uses thereof” (Samumed, LLC, priority 2015, dated 2019).

Key:
Format in all cases: cell-based
[1] = tested on: Wnt activity (Sp5-Luc reporter, SW480 colon carcinoma cells); assay: Wnt activity screening assay: Sp5-Luc reporter gene assay in SW480 cells; conditions: Homo sapiens; for EC50: SW480 cells, overnight incubation; for inhibition at 10 µM: given where EC50 >10 μM, SW480, read-out: percent inhibition at 10 μM
In short: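 Luminescence (BrightGlo) read after overnight 37 °C exposure of Sp5-Luc SW480 reporter cells, 4,000/well in 1% FBS, to compound dosed 1:3 over 10 points from 10 μM with 0.1% DMSO. Values normalized to DMSO-only cells, fitted with variable-slope four-parameter model; where EC50 exceeds 10 μM, % inhibition at 10 μM reported.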

[2] = tested on: SW480 colon cancer cells; assay: Cell viability assay (CellTiter-Blue); conditions: Homo sapiens; for EC50: 96 h, SW480 cell viability, four days, CellTiter-Blue; for inhibition at 10 µM: given where EC50 >10 μM, SW480 viability, read-out: percent inhibition at 10 μM
In short: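 Four-day viability readout in SW480 cells: compound at 0.0045–10 μM (1:3 series), DMSO controls in eight replicates, CellTiter-Blue fluorescence after ~3 h. Values are regression-derived EC50s, or percent inhibition at 10 μM when EC50 exceeds 10 μM.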

[3] = tested on: IL-6 (THP-1 cells); assay: IL-6 inhibition in LPS-stimulated THP-1 cells (HTRF); conditions: Homo sapiens; for EC50: THP-1 cells, LPS 500 ng/mL, 22 hours, IL6 HTRF; for inhibition at 10 µM: given where EC50 >10 μM, THP-1, IL6, read-out: percent inhibition at 10 μM
In short: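 THP-1 cells, pre-cultured 24 h in 1% FBS, were preincubated 2 h with compound over a 10-point 1:3 series from 10 μM (0.1% DMSO). They were then stimulated with 500 ng/mL LPS for 22 h at 37° C. IL-6 was read by HTRF 665/620 nm ratio, and EC50 was fitted by four-parameter regression against DMSO; above 10 μM, % inhibition at 10 μM is given.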

For `CC(C)CC(=O)Nc1cncc(-c2ccc3[nH]nc(-c4cc5c(N6CCN(C)CC6)ccnc5[nH]4)c3n2)c1` [Compound 226, 3-Methyl-N-(5-(3-(4-(4-methylpiperazin-1-yl)-1H-pyrrolo[2,3-b]pyridin-2-yl)-1H-pyrazolo[4,3-b]pyridin-5-yl)pyridin-3-yl)butanamide], the EC50 [1] was 3.45 µM, the EC50 [2] was 1.55 µM and the EC50 [3] was 3.27 µM.
`CN1CCN(c2ccnc3[nH]c(-c4n[nH]c5ccc(-c6cncc(NC(=O)C(C)(C)C)c6)nc45)cc23)CC1` [Compound 232, N-(5-(3-(4-(4-Methylpiperazin-1-yl)-1H-pyrrolo[2,3-b]pyridin-2-yl)-1H-pyrazolo[4,3-b]pyridin-5-yl)pyridin-3-yl)pivalamide] was tested, and the EC50 [1] was 3.83 µM, the EC50 [2] was 1.44 µM and the EC50 [3] was 3.43 µM.
Compound `CN1CCN(c2ccnc3[nH]c(-c4n[nH]c5ccc(-c6cncc(NC(=O)c7ccccc7)c6)nc45)cc23)CC1` [Compound 235, N-(5-(3-(4-(4-Methylpiperazin-1-yl)-1H-pyrrolo[2,3-b]pyridin-2-yl)-1H-pyrazolo[4,3-b]pyridin-5-yl)pyridin-3-yl)benzamide] has an EC50 [1] of 6.09 µM, an EC50 [2] of 3.27 µM and an EC50 [3] of over 10 µM. The inhibition at 10 µM [3] was 48.1%.
Work on `CN1CCN(c2ccnc3[nH]c(-c4n[nH]c5ccc(-c6cncc(NC(=O)CC(C)(C)C)c6)nc45)cc23)CC1` [Compound 240, 3,3-Dimethyl-N-(5-(3-(4-(4-methylpiperazin-1-yl)-1H-pyrrolo[2,3-b]pyridin-2-yl)-1H-pyrazolo[4,3-b]pyridin-5-yl)pyridin-3-yl)butanamide] yielded an EC50 [1] of 3.91 µM, an EC50 [2] of 2 µM and an EC50 [3] of over 10 µM. It also gave an inhibition at 10 µM [3] of 43.5%.
For `c1cncc(-c2ccc3[nH]nc(-c4cc5cccnc5[nH]4)c3n2)c1` [Compound 256, 5-(Pyridin-3-yl)-3-(1H-pyrrolo[2,3-b]pyridin-2-yl)-1H-pyrazolo[4,3-b]pyridine], the EC50 [1] was over 10 µM, the inhibition at 10 µM [1] was 47% and the EC50 [2] was over 10 µM. It also gave an inhibition at 10 µM [2] of 23.2% and an EC50 [3] of 0.002 µM.
Work on `CCNCc1cncc(-c2ccc3[nH]nc(-c4cc5cccnc5[nH]4)c3n2)c1` [Compound 258, N-((5-(3-(1H-Pyrrolo[2,3-b]pyridin-2-yl)-1H-pyrazolo[4,3-b]pyridin-5-yl)pyridin-3-yl)methyl)ethanamine] yielded an EC50 [1] of 3.78 µM, an EC50 [2] of 2.81 µM and an EC50 [3] of over 10 µM. The inhibition at 10 µM [3] was 4.6%.
`CN(C)Cc1cncc(-c2ccc3[nH]nc(-c4cc5cccnc5[nH]4)c3n2)c1` [Compound 265, 1-(5-(3-(1H-Pyrrolo[2,3-b]pyridin-2-yl)-1H-pyrazolo[4,3-b]pyridin-5-yl)pyridin-3-yl)-N,N-dimethylmethanamine] gave an EC50 [1] of over 10 µM, an inhibition at 10 µM [1] of 20.6% and an EC50 [2] of 4.21 µM. It also gave an EC50 [3] of 0.653 µM.
`O=C(Nc1cncc(-c2ccc3[nH]nc(-c4cc5cccnc5[nH]4)c3n2)c1)C1CCCCC1` [Compound 275, N-(5-(3-(1H-Pyrrolo[2,3-b]pyridin-2-yl)-1H-pyrazolo[4,3-b]pyridin-5-yl)pyridin-3-yl)cyclohexanecarboxamide] gave an EC50 [1] of over 10 µM, an inhibition at 10 µM [1] of 14.9% and an EC50 [2] of over 10 µM. The inhibition at 10 µM [2] was 10.5% and the EC50 [3] was 0.157 µM.
`FC1(F)CCN(Cc2cncc(-c3ccc4[nH]nc(-c5cc6cccnc6[nH]5)c4n3)c2)C1` [Compound 278, 5-(5-((3,3-Difluoropyrrolidin-1-yl)methyl)pyridin-3-yl)-3-(1H-pyrrolo[2,3-b]pyridin-2-yl)-1H-pyrazolo[4,3-b]pyridine] was tested, and the EC50 [1] was 0.104 µM, the EC50 [2] was 0.345 µM and the EC50 [3] was 0.107 µM.
In the case of `c1cnc2[nH]c(-c3n[nH]c4ccc(-c5cncnc5)nc34)cc2c1` [Compound 279, 5-(Pyrimidin-5-yl)-3-(1H-pyrrolo[2,3-b]pyridin-2-yl)-1H-pyrazolo[4,3-b]pyridine], the EC50 [1] is reported as over 10 µM, the inhibition at 10 µM [1] is reported as 8% and the EC50 [2] is reported as over 10 µM. For the same compound, the inhibition at 10 µM [2] was 14.3% and the EC50 [3] was 0.003 µM.
With `CN(C)c1cncc(-c2ccc3[nH]nc(-c4cc5c(-c6ccoc6)ccnc5[nH]4)c3n2)c1` [Compound 315, 5-(3-(4-(Furan-3-yl)-1H-pyrrolo[2,3-b]pyridin-2-yl)-1H-pyrazolo[4,3-b]pyridin-5-yl)-N,N-dimethylpyridin-3-amine] the EC50 [1] was over 10 µM, the inhibition at 10 µM [1] was 6.6% and the EC50 [2] was over 10 µM. It also gave an inhibition at 10 µM [2] of 6.1% and an EC50 [3] of 0.418 µM.
`O=C(Cc1ccccc1)Nc1cncc(-c2ccc3[nH]nc(-c4cc5c(-c6ccoc6)ccnc5[nH]4)c3n2)c1` [Compound 318, N-(5-(3-(4-(Furan-3-yl)-1H-pyrrolo[2,3-b]pyridin-2-yl)-1H-pyrazolo[4,3-b]pyridin-5-yl)pyridin-3-yl)-2-phenylacetamide] showed an EC50 [1] of over 10 µM, an inhibition at 10 µM [1] of 3.4% and an EC50 [2] of over 10 µM. It also gave an inhibition at 10 µM [2] of 3%, an EC50 [3] of over 10 µM and an inhibition at 10 µM [3] of 46.6%.
For `c1csc(-c2ccnc3[nH]c(-c4n[nH]c5ccc(-c6ccncc6)nc45)cc23)c1` [Compound 354, 5-(Pyridin-4-yl)-3-(4-(thiophen-2-yl)-1H-pyrrolo[2,3-b]pyridin-2-yl)-1H-pyrazolo[4,3-b]pyridine], the EC50 [1] was over 10 µM, the inhibition at 10 µM [1] was 14.6% and the EC50 [2] was over 10 µM. It also gave an inhibition at 10 µM [2] of 39.8% and an EC50 [3] of 1.61 µM.
`c1csc(-c2ccnc3[nH]c(-c4n[nH]c5ccc(-c6cncnc6)nc45)cc23)c1` [Compound 363, 5-(Pyrimidin-5-yl)-3-(4-(thiophen-2-yl)-1H-pyrrolo[2,3-b]pyridin-2-yl)-1H-pyrazolo[4,3-b]pyridine] showed an EC50 [1] of over 10 µM, an inhibition at 10 µM [1] of 29.8% and an EC50 [2] of over 10 µM. For the same compound, the inhibition at 10 µM [2] was 29.3%, the EC50 [3] was over 10 µM and the inhibition at 10 µM [3] was 36.3%.
For `CN(C)CCNc1cc(F)cc(-c2ccnc3[nH]c(-c4n[nH]c5ccc(-c6ccncc6)nc45)cc23)c1` [Compound 466, N^1-(3-Fluoro-5-(2-(5-(pyridin-4-yl)-1H-pyrazolo[4,3-b]pyridin-3-yl)-1H-pyrrolo[2,3-b]pyridin-4-yl)phenyl)-N^2,N^2-dimethylethane-1,2-diamine], the EC50 [1] was over 10 µM, the inhibition at 10 µM [1] was 8.6% and the EC50 [2] was over 10 µM. The inhibition at 10 µM [2] was 16.8%, the EC50 [3] was over 10 µM and the inhibition at 10 µM [3] was 31%.
Compound `CN(C)CCNc1cc(F)cc(-c2ccnc3[nH]c(-c4n[nH]c5ccc(-c6cncc(CNCC7CCCC7)c6)nc45)cc23)c1` [Compound 473, N^1-(3-(2-(5-(5-(((Cyclopentylmethyl)amino)methyl)pyridin-3-yl)-1H-pyrazolo[4,3-b]pyridin-3-yl)-1H-pyrrolo[2,3-b]pyridin-4-yl)-5-fluorophenyl)-N^2,N^2-dimethylethane-1,2-diamine] has an EC50 [1] of 4.67 µM, an EC50 [2] of 2.26 µM and an EC50 [3] of 6.75 µM.
`Fc1cccc(-c2ccnc3[nH]c(-c4n[nH]c5ccc(-c6cncc(OCc7ccccc7)c6)nc45)cc23)c1` [Compound 518, 5-(5-(Benzyloxy)pyridin-3-yl)-3-(4-(3-fluorophenyl)-1H-pyrrolo[2,3-b]pyridin-2-yl)-1H-pyrazolo[4,3-b]pyridine] was tested, and the EC50 [1] was over 10 µM, the inhibition at 10 µM [1] was 16.7% and the EC50 [2] was over 10 µM. For the same compound, the inhibition at 10 µM [2] was 17.3%, the EC50 [3] was over 10 µM and the inhibition at 10 µM [3] was 9.6%.
Work on `Oc1cncc(-c2ccc3[nH]nc(-c4cc5c(-c6ccc(F)cc6)ccnc5[nH]4)c3n2)c1` [Compound 533, 5-(3-(4-(4-Fluorophenyl)-1H-pyrrolo[2,3-b]pyridin-2-yl)-1H-pyrazolo[4,3-b]pyridin-5-yl)pyridin-3-ol] yielded an EC50 [1] of 0.31 µM, an EC50 [2] of over 10 µM and an inhibition at 10 µM [2] of 15.4%. For the same compound, the EC50 [3] was over 10 µM and the inhibition at 10 µM [3] was 37.1%.
In the case of `CN(C)CCOc1cncc(-c2ccc3[nH]nc(-c4cc5c(-c6cccnc6)ccnc5[nH]4)c3n2)c1` [Compound 563, N,N-Dimethyl-2-((5-(3-(4-(pyridin-3-yl)-1H-pyrrolo[2,3-b]pyridin-2-yl)-1H-pyrazolo[4,3-b]pyridin-5-yl)pyridin-3-yl)oxy)ethan-1-amine], the EC50 [1] is reported as over 10 µM, the inhibition at 10 µM [1] is reported as 7.2% and the EC50 [2] is reported as over 10 µM. It also gave an inhibition at 10 µM [2] of 0%, an EC50 [3] of over 10 µM and an inhibition at 10 µM [3] of 20.3%.
Work on `c1cc(-c2ccnc3[nH]c(-c4n[nH]c5ccc(-c6cncc(OCCN7CCCC7)c6)nc45)cc23)ccn1` [Compound 578, 3-(4-(Pyridin-4-yl)-1H-pyrrolo[2,3-b]pyridin-2-yl)-5-(5-(2-(pyrrolidin-1-yl)ethoxy)pyridin-3-yl)-1H-pyrazolo[4,3-b]pyridine] yielded an EC50 [1] of over 10 µM, an inhibition at 10 µM [1] of 7.7% and an EC50 [2] of over 10 µM. The inhibition at 10 µM [2] was 14.7%, the EC50 [3] was over 10 µM and the inhibition at 10 µM [3] was 27%.
In the case of `c1cc(N2CCCCC2)c2cc(-c3n[nH]c4ccc(C5CCNCC5)nc34)[nH]c2n1` [Compound 601, 3-(4-(Piperidin-1-yl)-1H-pyrrolo[2,3-b]pyridin-2-yl)-5-(piperidin-4-yl)-1H-pyrazolo[4,3-b]pyridine], the EC50 [1] is reported as over 10 µM, the inhibition at 10 µM [1] is reported as 3.5% and the EC50 [2] is reported as over 10 µM. It also gave an inhibition at 10 µM [2] of 40.7% and an EC50 [3] of 3.5 µM.
